The results in this text go back to ChEMBL document CHEMBL4665541, “Search for new therapeutic options for the uncommon pathogen Mycobacterium chimaera: an open drug discovery approach” (Lancet Microbe, 2021).

What all share (format): functional, organism-based
What all share (design): conc 20 uM

Test [1] deals with Mycobacterium intracellulare subsp. chimaera. Nature of the test: (§1) Inhibition of mycobacterial growth using the resazurin microtitre cell viability assay (REMA), compounds at final concentration of 20 µM (2% v/v DMSO). Hits were classed as compounds that inhibited bacterial growth by 70% or more compared to drug-free controls. As to conditions: NCTC13781. (In general: Alamar Blue is a resazurin reagent that responds to reducing activity.)

Test [2] has as its system Mycobacterium tuberculosis. The test is described as §1. To be noted: H37Rv.
Test [3] deals with Mycobacteroides abscessus. Described as §1. To be noted: ATCC19977.

MMV688795: the Survival in test [1] was 105%; in test [2], 77.7%; in test [3], 105%.

With MMV688796, the Survival was 93.4% in test [1], 99.3% in test [2] and 103% in test [3].

As for MMV688797, the Survival in test [1] is 96.5%; in test [2], 80.5%; in test [3], 113%.

As to MMV688798, the figures for the Survival in test [1], in test [2] and in test [3] were 95.2%, 102% and 103%, respectively.

As to MMV688844, the Survival was 4.25% in test [1], 15.4% in test [2] and 11.7% in test [3].

For MMV688845, the Survival is 1.95% in test [1], 6.47% in test [2] and 24.1% in test [3].

In the case of MMV688846, the Survival was 112% in test [1], 69.2% in test [2] and 20.9% in test [3].

For the substance MMV688852, the Survival was 103% in test [1], 107% in test [2] and 115% in test [3].

MMV688853: the Survival in test [1] was 102%; in test [2], 94.5%; in test [3], 111%.

Consider MMV688854, for which the Survival in test [1] was 111%; in test [2] it was 111%; in test [3], 114%.

In the case of MMV688888, the Survival in test [1] was 37.8%; in test [2], 23.3%; in test [3], 95.5%.

Take MMV688889: the Survival is 89.4% in test [1], 58.9% in test [2] and 105% in test [3].

MMV688891: the Survival in test [1] was 113%; in test [2], 101%; in test [3], 109%.

For the substance MMV688921, the Survival in test [1] was 109%; in test [2], 110%; in test [3], 110%.

MMV688934: the results for the Survival in test [1], in test [2] and in test [3] were 104%, 101% and 112%, respectively.

Take MMV688936: the results for the Survival in test [1], in test [2] and in test [3] were 98.9%, 82.6% and 106%, respectively.

For MMV688938, the Survival in test [1] was 88.3%; in test [2], 119%; in test [3], 118%.

With MMV688939, the Survival in test [1] is 95.4%; in test [2] it was 48.9%; in test [3] it was 97.6%.

On to MMV688941, for which the Survival is 104% in test [1], 69.8% in test [2] and 120% in test [3].

As for MMV688942, the Survival in test [1] is 98.6%; in test [2], 85.1%; in test [3] it was 112%.

On to MMV688943, for which the Survival is 100% in test [1], 89.7% in test [2] and 112% in test [3].

MMV688955: the Survival in test [1] was 94.2%; in test [2] it was 103%; in test [3], 89.9%.

Take MMV688958: the Survival in test [1] was 97.7%; in test [2] it was 91.1%; in test [3], 109%.

In the case of MMV688978, the figures for the Survival in test [1], in test [2] and in test [3] were 105%, 5.27% and 106%, respectively.

Consider MMV688980, for which the Survival was 92% in test [1], 99.6% in test [2] and 87.1% in test [3].

For MMV688990, the Survival is 102% in test [1], 98.5% in test [2] and 103% in test [3].

For MMV688991, the Survival was 90.1% in test [1], 82.1% in test [2] and 98.3% in test [3].

On to MMV688994, for which the values for the Survival in test [1], in test [2] and in test [3] were 80%, 13.7% and 101%, respectively.

MMV689000: the Survival was 101% in test [1], 89.8% in test [2] and 115% in test [3].

In the case of MMV689028, the Survival in test [1] was 127%; in test [2], 121%; in test [3] it was 121%.

MMV689029: the Survival in test [1] was 93.5%; in test [2], 86.9%; in test [3], 119%.
